Drawing on patent US20230250077A1, “SULFONYLBENZAMIDE DERIVATIVE AND CONJUGATE THEREOF, PREPARATION METHOD THEREFOR AND USE THEREOF” (Jiangsu Hengrui Pharmaceuticals Co., Ltd., priority 2020, published 2023), this text covers Ki and IC50 for 9 compounds.

One experiment has as its target T1, BCL-xL (Homo sapiens, UniProt Q07817).
T1 construct: purchased R&D 894-BX-050
As to the kind of experiment: Binding activity for BCL-xL (HTRF, biotin-labeled BIM). To be noted: His-tagged BCL-xL. Here is the method:
In vitro BCL-xL-binding activity was tested by the following method.
Reagents used in this experiment: His-tagged BCL-xL protein (R&D, Cat #894-BX-050); biotin-labeled BIM protein (R&D, Cat #3526/1); binding buffer (cisbio, Cat #62DLBDDF); assay buffer (cisbio, Cat #62DB1FDG); MAb anti-6His-Eu cryptate (cisbio, Cat #61HI2KLA); and affinity streptomycin linked XL665 (cisbio, Cat #611SAXLA).
The in vitro binding assay described below can determine the binding activity of test compounds for BCL-xL.
The test compounds were dissolved in dimethyl sulfoxide and diluted to gradient concentrations as required for the experiment, and the compounds at various concentrations formulated in dimethyl sulfoxide were subjected to a 100-fold dilution with a binding buffer. BCL-xL was diluted to the corresponding concentration with a binding buffer, and added to a white 384-well plate at 4 μL/well. Then the diluted test compound was added to the white 384-well plate at 2 μL/well. The plate was incubated at 25° C. for 1 h after the mixture was uniformly mixed. Biotin-labeled BIM protein was diluted to the corresponding concentration with a binding buffer, and added to a white 384-well plate at 4 μL/well. The plate was incubated at 25° C. for 2 h after the mixture was uniformly mixed. The MAb anti-6His-Eu cryptate and the affinity streptomycin linked XL665 were each diluted to the corresponding concentration with an assay buffer, and added to a white 384-well plate at 5 μL/well. The plate was incubated at 25° C. for 2-4 h after the mixture was uniformly mixed. The signal values were read with the HTRF program in a microplate reader (BMG Labtech, model: PHERAstar FS).
In general terms: In TR-FRET formats the signal depends on donor and acceptor labels being close together.

Another experiment concerns the target T2, BCL-2 (Homo sapiens, UniProt P10415).
T2 construct: purchased R&D systems 827-BC-050
As to the kind of experiment: Binding activity for BCL-2 (HTRF, biotin-labeled BIM). Conditions: His-tagged BCL-2, biotin-labeled BIM. Here is the method:
In vitro BCL-2-binding activity was tested by the following method.
Reagents used in this experiment: His-tagged BCL-2 protein (R&D systems, Cat #827-BC-050); biotin-labeled BIM protein (R&D, Cat #3526/1); binding buffer (cisbio, Cat #62DLBDDF); assay buffer (cisbio, Cat #62DB1FDG); MAb anti-6His-Eu cryptate (cisbio, Cat #61HI2KLA); and affinity streptomycin linked XL665 (cisbio, Cat #611SAXLA).
The in vitro binding assay described below can determine the binding activity of test compounds for BCL-2.
The test compounds were dissolved in dimethyl sulfoxide and diluted to gradient concentrations as required for the experiment, and the compounds at various concentrations formulated in dimethyl sulfoxide were subjected to a 100-fold dilution with a binding buffer. BCL-2 was diluted to the corresponding concentration with a binding buffer solution, and added to a white 384-well plate at 4 μL/well. Then the diluted test compound was added into the white 384-well plate at 2 μL/well. The plate was incubated at 25° C. for 1 h after the mixture was uniformly mixed. Biotin-labeled BIM protein was diluted to the corresponding concentration with a binding buffer, and added to a white 384-well plate at 4 μL/well. The plate was incubated at 25° C. for 2 h after the mixture was uniformly mixed. The MAb anti-6His-Eu cryptate and the affinity streptomycin linked XL665 were each diluted to the corresponding concentration with an assay buffer, and added to a white 384-well plate at 5 μL/well. The plate was incubated at 25° C. for 2-4 h after the mixture was uniformly mixed. The signal values were read with the HTRF program in a microplate reader (BMG Labtech, model: PHERAstar FS).

Another experiment concerns RS4;11 cells. Kind of experiment: Inhibition of proliferation of RS4;11 cells (CellTiter-Glo). The experiment is classed as cell-based. To be noted: Homo sapiens, 72 h, 3 days, read-out: Inhibitory activity IC50 (nM) for the proliferation of RS4;11 cells. Here is the method:
(§1) In vitro inhibitory activity for the proliferation of RS4;11 cells and NCI-H146 cells was tested by the following method.
(§2) Reagents used in this experiment: RPMI-1640 medium (HyCLone, Cat #SH30243018); fetal bovine serum (Gibco, Cat #10099-141); pancreatin (Gibco, Cat #25200-072); Cell Titer-Glo (Promega, Cat #G7571).
(§3) Materials used: RS4;11 cells (Nanjing Kebai Biotechnology Co., Ltd, Cat #CBP60641); and NCI-H146 cells (ATCC, Cat #HTB-173).
(§4) The in vitro cell proliferation assay described below can determine the inhibitory activity of the test compounds for the proliferation of RS4;11 cells and NCI-H146 cells.
(§5) RS4;11 cells (or NCI-H146 cells) were cultured in an RPMI-1640 culture medium containing 10% FBS, and were passaged for 2-3 times a week in a passage ratio of 1:3 or 1:5. During passage, the cells were transferred to a centrifuge tube, and centrifuged at 1200 rpm for 3 min. The supernatant was discarded, and fresh culture medium was added to resuspend the cells. 90 μL of cell suspension was added to a 96-well cell culture plate, wherein RS4;11 cells and NCI-H146 cells were added at a density of 2.22×10^5 cells/mL. Only 100 μL of complete medium (RPMI-1640 medium containing 10% FBS) was added to the periphery of the 96-well plate. The plate was incubated in an incubator for 24 h (37° C., 5% CO2).
(§6) The test sample was diluted to a proper concentration gradient with dimethyl sulfoxide as required for the experiment. 5 μL of the solution of the test compound prepared in a gradient concentration was added to 95 μL of fresh culture medium and mixed uniformly, and then 10 μL of the culture medium containing the above compound was added to a cell culture plate. The cell culture plate was incubated in an incubator for 3 days (37° C., 5% CO2). 50 μL of CellTiter-Glo reagent was added into each well of the 96-well cell culture plate. The plate was let stand for 5-10 min away from the light at room temperature. The chemiluminescence signals were read by a microplate reader (BMG Labtech, model: PHERAstar FS) and the data were processed by GraphPad software.
A general note: In ATP-based viability assays light output follows the ATP content of the culture.

The test system of another experiment is NCI-H146 cells. As to the kind of experiment: Inhibition of proliferation of NCI-H146 cells (CellTiter-Glo). The experiment is classed as cell-based. To be noted: Homo sapiens, 72 h, 3 days, read-out: Inhibitory activity IC50 (nM) for the proliferation of NCI-H146 cells. Here is the method: as §1, §2, §3, §4, §5, §6

SMILES strings stand for the structures.

T2 sequence (P10415 whole entry): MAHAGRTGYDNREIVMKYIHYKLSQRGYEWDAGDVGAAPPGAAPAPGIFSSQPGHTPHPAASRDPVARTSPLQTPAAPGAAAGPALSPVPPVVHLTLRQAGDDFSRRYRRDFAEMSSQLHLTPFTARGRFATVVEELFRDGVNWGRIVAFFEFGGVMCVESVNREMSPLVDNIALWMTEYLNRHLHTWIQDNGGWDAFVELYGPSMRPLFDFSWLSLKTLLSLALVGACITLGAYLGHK
T1 sequence (Q07817 whole entry): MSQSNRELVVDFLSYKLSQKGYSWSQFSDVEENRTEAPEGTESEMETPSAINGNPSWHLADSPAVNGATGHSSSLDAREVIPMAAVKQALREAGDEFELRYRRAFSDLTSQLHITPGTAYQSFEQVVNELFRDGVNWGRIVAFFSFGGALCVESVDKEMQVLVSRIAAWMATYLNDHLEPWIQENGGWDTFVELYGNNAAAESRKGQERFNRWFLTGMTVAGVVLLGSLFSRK

`O=C(NS(=O)(=O)c1ccc(N[C@@H](CSc2ccccc2)C[C@@H]2CCCN2CCO)c(S(=O)(=O)C(F)(F)F)c1)c1ccc(N2CCC([C@@H](O)c3ccccc3-c3ccc(C(F)(F)F)cc3)CC2)cc1` [Example 2-13, 4-(4-((R)-hydroxy(4′-(trifluoromethyl)-[1,1′-biphenyl]-2-yl)methyl)piperidin-1-yl)-N-((4-(((R)-1-((S)-1-(2-hydroxyethyl)pyrrolidin-2-yl)-3-(phenylthio)propan-2-yl)amino)-3-((trifluoromethyl)sulfonyl)phenyl)sulfonyl)benzamide]: the Ki on BCL-xL was 0.3 nM; at BCL-2, 0.04 nM. Moreover, the results for the IC50 with RS4;11 cells and in the experiment with NCI-H146 cells were 7 nM and 35 nM, respectively.

`CO[C@@H](c1ccccc1-c1ccc(Cl)cc1)C1CCN(c2ccc(C(=O)NS(=O)(=O)c3ccc(N[C@@H](CSc4ccccc4)C[C@H]4CCCN4CCO)c(S(=O)(=O)C(F)(F)F)c3)cc2)CC1` [Example 2-4, 4-(4-((R)-(4′-chloro-[1,1′-biphenyl]-2-yl)(methoxy)methyl)piperidin-1-yl)-N-((4-(((R)-1-((R)-1-(2-hydroxyethyl)pyrrolidin-2-yl)-3-(phenylthio)propan-2-yl)amino)-3-((trifluoromethyl)sulfonyl)phenyl)sulfonyl)benzamide]: the Ki worked out at 0.32 nM at BCL-xL and 0.13 nM on BCL-2. In addition, the results for the IC50 in the experiment with RS4;11 cells and in the experiment with NCI-H146 cells were 34 nM and 94 nM, respectively.

For `O=C(NS(=O)(=O)c1ccc(N[C@@H](CSc2ccccc2)C[C@@H]2CCCN2)c(S(=O)(=O)C(F)(F)F)c1)c1ccc(N2CCC([C@@H](O)c3ccccc3-c3ccc(Cl)cc3)CC2)cc1` [Example 2-8, 4-(4-((R)-(4′-chloro-[1,1′-biphenyl]-2-yl)(hydroxy)methyl)piperidin-1-yl)-N-((4-(((R)-1-(phenylthio)-3-((S)-pyrrolidin-2-yl)propan-2-yl)amino)-3-((trifluoromethyl)sulfonyl)phenyl)sulfonyl)benzamide], the Ki on BCL-xL is 0.3 nM; on BCL-2 it was 0.11 nM. In addition, the figures for the IC50 in the experiment with RS4;11 cells and with NCI-H146 cells were 18 nM and 46 nM, respectively.

Consider `O=C(NS(=O)(=O)c1ccc(N[C@@H](CSc2ccccc2)C[C@@H]2CCCN2CCCO)c(S(=O)(=O)C(F)(F)F)c1)c1ccc(N2CCC([C@@H](O)c3ccccc3-c3ccc(Cl)cc3)CC2)cc1` [Example 2-11, 4-(4-((R)-(4′-chloro-[1,1′-biphenyl]-2-yl)(hydroxy)methyl)piperidin-1-yl)-N-((4-(((R)-1-((S)-1-(3-hydroxypropyl)pyrrolidin-2-yl)-3-(phenylthio)propan-2-yl)amino)-3-((trifluoromethyl)sulfonyl)phenyl)sulfonyl)benzamide], for which the Ki at BCL-xL is 0.1 nM; on BCL-2, 0.04 nM. Also, the figures for the IC50 in the experiment with RS4;11 cells and in the experiment with NCI-H146 cells were 5 nM and 16 nM, respectively.

As to `CO[C@@H](c1ccccc1-c1ccc(Cl)cc1)C1CCN(c2ccc(C(=O)NS(=O)(=O)c3ccc(N[C@@H](CSc4ccccc4)C[C@H]4CCCN4)c(S(=O)(=O)C(F)(F)F)c3)cc2)CC1` [Example 2-3, 4-(4-((R)-(4′-chloro-[1,1′-biphenyl]-2-yl)(methoxy)methyl)piperidin-1-yl)-N-((4-(((R)-1-(phenylthio)-3-((R)-pyrrolidin-2-yl)propan-2-yl)amino)-3-((trifluoromethyl)sulfonyl)phenyl)sulfonyl)benzamide], the Ki came out at 0.17 nM at BCL-xL and 0.1 nM on BCL-2. Also, the values for the IC50 with RS4;11 cells and in the experiment with NCI-H146 cells were 58 nM and 74 nM, respectively.

Regarding `O=C(NS(=O)(=O)c1ccc(N[C@@H](CSc2ccccc2)C[C@H]2CCCN2)c(S(=O)(=O)C(F)(F)F)c1)c1ccc(N2CCC([C@@H](O)c3ccccc3-c3ccc(Cl)cc3)CC2)cc1` [Example 2-1, 4-(4-((R)-(4′-chloro-[1,1′-biphenyl]-2-yl)(hydroxy)methyl)piperidin-1-yl)-N-((4-(((R)-1-(phenylthio)-3-((R)-pyrrolidin-2-yl)propan-2-yl)amino)-3-((trifluoromethyl)sulfonyl)phenyl)sulfonyl)benzamide], the values for the inhibition constant Ki at BCL-xL and on BCL-2 were 0.09 nM and 0.07 nM, respectively. Moreover, the IC50 in the experiment on RS4;11 cells was found to be 23 nM; with NCI-H146 cells, 36 nM.

With `CC(Sc1ccccc1)[C@@H](CCN(C)CCO)Nc1ccc(S(=O)(=O)NC(=O)c2ccc(N3CCC([C@@H](O)c4ccccc4-c4ccc(C(F)(F)F)cc4)CC3)cc2)cc1S(=O)(=O)C(F)(F)F` (stereo partly drawn) [Example 2-7, 4-(4-((R)-hydroxy(4′-(trifluoromethyl)-[1,1′-biphenyl]-2-yl)methyl)piperidin-1-yl)-N-((4-(((3R)-1-((2-hydroxyethyl)(methyl)amino)-4-(phenylthio)pentan-3-yl)amino)-3-((trifluoromethyl)sulfonyl)phenyl)sulfonyl)benzamide], on BCL-2, the Ki is 0.34 nM.

On to `O=C(NS(=O)(=O)c1ccc(N[C@@H](CSc2ccccc2)C[C@H]2CCCN2CCCO)c(S(=O)(=O)C(F)(F)F)c1)c1ccc(N2CCC([C@@H](O)c3ccccc3-c3ccc(Cl)cc3)CC2)cc1` [Example 2-5, 4-(4-((R)-(4′-chloro-[1,1′-biphenyl]-2-yl)(hydroxy)methyl)piperidin-1-yl)-N-((4-(((R)-1-((R)-1-(3-hydroxypropyl)pyrrolidin-2-yl)-3-(phenylthio)propan-2-yl)amino)-3-((trifluoromethyl)sulfonyl)phenyl)sulfonyl)benzamide], for which the Ki at BCL-xL was 0.45 nM; on BCL-2, 0.13 nM. Also, the figures for the IC50 with RS4;11 cells and with NCI-H146 cells were 9 nM and 55 nM, respectively.

On to `O=C(NS(=O)(=O)c1ccc(N[C@@H](CSc2ccccc2)C[C@@H]2CCCN2)c(S(=O)(=O)C(F)(F)F)c1)c1ccc(N2CCC([C@@H](O)c3ccccc3-c3ccc(C(F)(F)F)cc3)CC2)cc1` [Example 2-12, 4-(4-((R)-hydroxy(4′-(trifluoromethyl)-[1,1′-biphenyl]-2-yl)methyl)piperidin-1-yl)-N-((4-(((R)-1-(phenylthio)-3-((S)-pyrrolidin-2-yl)propan-2-yl)amino)-3-((trifluoromethyl)sulfonyl)phenyl)sulfonyl)benzamide], for which the inhibitory constant (Ki) at BCL-xL was 0.15 nM; at BCL-2, 0.04 nM.

The Ki is the dissociation constant of the complex between target and ligand, obtained from inhibition or displacement. Read a high Ki as weaker binding.
